Measurements reported in ChEMBL document CHEMBL1137977, “HCV NS5B polymerase-bound conformation of a soluble sulfonamide inhibitor by 2D transferred NOESY” (Bioorg Med Chem Lett, 2004).

Molecular target: RNA-directed RNA polymerase (Hepacivirus hominis, UniProt O39930)
Assay: Inhibitory concentration for NS5B RNA-dependent RNA polymerase of Hepatitis C virus

Sequence of RNA-directed RNA polymerase (O39930 whole entry): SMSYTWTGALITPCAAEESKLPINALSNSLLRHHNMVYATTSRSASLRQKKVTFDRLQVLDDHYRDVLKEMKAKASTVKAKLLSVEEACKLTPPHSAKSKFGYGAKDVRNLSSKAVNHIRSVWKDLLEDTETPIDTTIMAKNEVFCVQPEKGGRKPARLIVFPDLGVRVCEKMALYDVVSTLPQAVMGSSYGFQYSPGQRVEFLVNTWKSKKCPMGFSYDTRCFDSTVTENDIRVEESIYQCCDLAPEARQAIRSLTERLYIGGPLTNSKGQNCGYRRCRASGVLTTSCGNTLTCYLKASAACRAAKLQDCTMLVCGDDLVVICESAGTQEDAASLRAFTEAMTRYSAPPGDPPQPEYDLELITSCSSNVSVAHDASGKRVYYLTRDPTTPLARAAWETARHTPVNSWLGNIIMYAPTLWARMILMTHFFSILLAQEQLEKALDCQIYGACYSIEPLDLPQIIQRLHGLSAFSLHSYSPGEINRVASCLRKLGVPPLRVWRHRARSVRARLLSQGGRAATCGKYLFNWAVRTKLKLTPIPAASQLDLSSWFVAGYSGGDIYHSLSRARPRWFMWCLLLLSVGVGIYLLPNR

Row | SMILES | IC50 [µM]
1 | Cc1cc(S(=O)(=O)Nc2cc(-c3ccccc3)sc2C(=O)O)c(C)cc1Cl | 5
2 | Cc1ccccc1S(=O)(=O)Nc1cc(-c2ccncc2)sc1C(=O)O | 4
3 | Cc1cc(S(=O)(=O)Nc2cc(-c3ccccc3)sc2C(N)=O)c(C)cc1Cl | 14

Other lines, results leading:

Row | IC50 [µM] | SMILES
4 | 25 | O=C(O)c1sc(-c2ccccc2)cc1NS(=O)(=O)c1ccccn1
5 | 15 | O=C(O)c1sc(-c2ccccc2)cc1NS(=O)(=O)c1ccc(C(F)(F)F)cn1
6 | 4 | O=C(O)c1sc(-c2ccc(F)cc2)cc1NS(=O)(=O)c1ccccn1
